Measurements: ChEMBL document CHEMBL3739293, “Synthesis of unusual isoxazoline containingand-dipeptides as potential glutamate receptor ligands” (Medchemcomm, 2015)

Experiments:
[1] = Displacement of [3H]AMPA from AMPA receptor in Sprague-Dawley rat brain synaptic membrane
[2] = biological target: Glutamate NMDA receptor; test: Displacement of [3H]CGP39653 from NMDA receptor in Sprague-Dawley rat brain synaptic membrane
[3] = Displacement of [3H]KA from KA receptor in Sprague-Dawley rat brain synaptic membrane

Row | Compound | IC50 [1] | pIC50 [1] | Ki [2] | pKi [2] | IC50 [3] | pIC50 [3]
1 | N[C@H](CCC(=O)N1C[C@@H]2ON=C(C(=O)O)[C@@H]2C1)C(=O)O (single isomer, unassigned) | 67 µM | 4.18 | 28 µM | 4.56 | 56 µM | 4.25
2 | N[C@H](CCC(=O)N1C[C@@H]2C(O)=NO[C@@H]2C1)C(=O)O | > 100 µM | – | > 100 µM | – | > 100 µM | –
3 | N[C@H](CCC(=O)N1C[C@@H]2ON=C(O)[C@@H]2C1)C(=O)O (single isomer, unassigned) | > 100 µM | – | > 100 µM | – | > 100 µM | –
4 | N[C@H](CCC(=O)N1C[C@@H]2C(C(=O)O)=NO[C@@H]2C1)C(=O)O | > 100 µM | – | 58 µM | 4.24 | > 100 µM | –
5 | N[C@@H](CCC(=O)N1C[C@@H]2C(O)=NO[C@@H]2C1)C(=O)O (single isomer, unassigned) | 48 µM | 4.36 | 41 µM | 4.41 | 59 µM | 4.23

The next compounds have a lower IC50 [1] than those just listed; values first:

Row | IC50 [1] | pIC50 [1] | Ki [2] | pKi [2] | IC50 [3] | pIC50 [3] | Compound
6 | 46 µM | 4.34 | 24 µM | 4.64 | 66 µM | 4.2 | N[C@@H](CCC(=O)N1C[C@@H]2ON=C(C(=O)O)[C@@H]2C1)C(=O)O
7 | 43 µM | 4.37 | 25 µM | 4.63 | 37 µM | 4.43 | N[C@@H](CCC(=O)N1C[C@@H]2ON=C(O)[C@@H]2C1)C(=O)O
8 | 34 µM | 4.48 | 21 µM | 4.68 | 40 µM | 4.39 | N[C@@H](CCC(=O)N1C[C@@H]2C(C(=O)O)=NO[C@@H]2C1)C(=O)O (single isomer, unassigned)
